Patent US20240024302A1, “SOLUBLE EPOXIDE HYDROLASE (sEH) INHIBITORS AND DUAL COX/sEH INHIBITORS FOR THE TREATMENT OF ARRHYTHMOGENIC CARDIOMYOPATHY” (BETH ISRAEL DEACONESS MEDICAL CENTER, INC., priority 2020, published 2024)

Assay: Rat PK, single oral gavage
Type: in vivo
Conditions: rat, in vivo, single dose 0.1 mg/kg
For `CC(C)C(=O)N1CCC(NC(=O)Nc2ccc(C(F)(F)F)c(F)c2)CC1`, the Cmax was 38 ± 3 nM and the Tmax was 1.8 ± 0.2 h. In the case of `O=C(Nc1ccc(OC(F)(F)F)c(F)c1)NC1CCN(C(=O)[C@@H]2CCOC2)CC1`, the Cmax is reported as 84 ± 6 nM and the Tmax is reported as 2.9 ± 0.3 h. `CCOC(=O)N1CCC(NC(=O)Nc2ccc(OC(F)(F)F)c(F)c2)CC1` gave a Cmax of 105 ± 16 nM and a Tmax of 3.7 ± 0.5 h. In the case of `CC(C)C(=O)N1CCC(CC(=O)Nc2ccc(OC(F)(F)F)c(F)c2)CC1`, the Cmax is reported as 17 ± 2 nM and the Tmax is reported as 1.6 ± 0.1 h.

Same assay, conditions: rat, in vivo, single dose 0.1 mg/kg, PEG 300
`CC(C)C(=O)N1CCC(NC(=O)Nc2ccc(C(F)(F)F)c(F)c2)CC1` showed an AUC of 0.212 ± 0.022 µM·h. `O=C(Nc1ccc(OC(F)(F)F)c(F)c1)NC1CCN(C(=O)[C@@H]2CCOC2)CC1` gave an AUC of 0.869 ± 0.127 µM·h. `CCOC(=O)N1CCC(NC(=O)Nc2ccc(OC(F)(F)F)c(F)c2)CC1` gave an AUC of 1.33 ± 0.093 µM·h. `CC(C)C(=O)N1CCC(CC(=O)Nc2ccc(OC(F)(F)F)c(F)c2)CC1` showed an AUC of 0.066 ± 0.011 µM·h.

Same assay, conditions: rat, in vivo, single dose 0.1 mg/kg, read-out: Rat T1/2 (converted)
In the case of `CC(C)C(=O)N1CCC(NC(=O)Nc2ccc(C(F)(F)F)c(F)c2)CC1`, the half-life is reported as 2.4 ± 0.3 h. With `O=C(Nc1ccc(OC(F)(F)F)c(F)c1)NC1CCN(C(=O)[C@@H]2CCOC2)CC1` the half-life was 3.8 ± 0.6 h. `CCOC(=O)N1CCC(NC(=O)Nc2ccc(OC(F)(F)F)c(F)c2)CC1` showed a half-life of 4.7 ± 0.8 h. `CC(C)C(=O)N1CCC(CC(=O)Nc2ccc(OC(F)(F)F)c(F)c2)CC1` gave a half-life of 1.2 ± 0.2 h.

Same assay, conditions: single dose 0.1 mg/kg
In the case of `CCC(=O)N1CCC(NC(=O)Nc2ccc(OC(F)(F)F)c(F)c2)CC1`, the Cmax is reported as 196 ± 12 nM, the “Rat T1/2” value is reported as 4.2 ± 0.8 h and the “Rat Tmax” value is reported as 4.5 ± 0.5 h. With `O=C(Nc1ccc(OC(F)(F)F)c(F)c1)NC1CCN(C(=O)C2CC2)CC1` the Cmax was 95 ± 3 nM, the “Rat T1/2” value was 2.9 ± 0.3 h and the “Rat Tmax” value was 4.0 ± 0.1 h.

Same assay, conditions: single dose 0.1 mg/kg, PEG 300
In the case of `CCC(=O)N1CCC(NC(=O)Nc2ccc(OC(F)(F)F)c(F)c2)CC1`, the “Rat AUC” value is reported as 2.701 ± 0.357 µM·h. With `O=C(Nc1ccc(OC(F)(F)F)c(F)c1)NC1CCN(C(=O)C2CC2)CC1` the “Rat AUC” value was 1.027 ± 0.065 µM·h.

Assay: Mouse PK, single oral gavage
Conditions: mouse, in vivo, po, 0.3 mg/kg, Mouse AUC, oral gavage, single dose 0.3 mg/kg, 20% PEG400 in oleic acid-rich triglyceride
In the case of `O=C(O)CC1(CC(=O)N2CCC(NC(=O)Nc3ccc(C(F)(F)F)cc3)CC2)CCCCC1`, the AUC is reported as 11.6 µM·h. Work on `O=C(Nc1ccc(C(F)(F)F)cc1)NC1CCN(C(=O)c2cc[nH]c2)CC1` yielded an AUC of 0.083 µM·h. Work on `Cc1ccoc1C(=O)N1CCC(NC(=O)Nc2ccc(OC(F)(F)F)cc2)CC1` yielded an AUC of 4.56 µM·h. For `CCC(=O)N1CCC(NC(=O)Nc2ccc(OC(F)(F)F)c(F)c2)CC1`, the AUC was 20.6 µM·h. In the case of `O=C(Nc1ccc(OC(F)(F)F)cc1)NC1CCN(C(=O)C2CCOC2)CC1` (centres unmarked), the AUC is reported as 12.6 µM·h. For `O=C(Nc1ccc(OC(F)(F)F)cc1)NC1CCN(C(=O)[C@@H]2CCOC2)CC1`, the AUC was 0.656 µM·h. In the case of `O=C(Nc1ccc(C(F)(F)F)cc1)NC1CCN(C(=O)[C@@H]2CCOC2)CC1`, the AUC is reported as 0.729 µM·h. In the case of `O=C(Nc1ccc(OC(F)(F)F)cc1)NC1CCN(C(=O)C2CCCOC2)CC1` (centres unmarked), the AUC is reported as 0.634 µM·h. `CC(C)C(=O)N1CCC(NC(=O)Nc2ccc(C(F)(F)F)c(F)c2)CC1` showed an AUC of 9.65 µM·h. In the case of `O=C(Nc1ccc(OC(F)(F)F)c(F)c1)NC1CCN(C(=O)[C@@H]2CCOC2)CC1`, the AUC is reported as 0.0973 ± 0.0001 µM·h. `O=C(Nc1ccc(C(F)(F)F)cc1)NC1CCN(C(=O)C2CCCOC2)CC1` (centres unmarked) showed an AUC of 3.17 µM·h. In the case of `O=C(Nc1ccc(OC(F)(F)F)cc1)NC1CCN(C(=O)c2ccoc2)CC1`, the AUC is reported as 2.93 µM·h. With `CCOC(=O)N1CCC(NC(=O)Nc2ccc(OC(F)(F)F)c(F)c2)CC1` the AUC was ≥ 0.0999 µM·h. Molecule `O=C(Nc1ccc(OC(F)(F)F)cc1)NC1CCN(C(=O)C2=COCC2)CC1` has an AUC of 0.67 µM·h. `O=C(Nc1ccc(OC(F)(F)F)c(F)c1)NC1CCN(C(=O)C2CC2)CC1` gave an AUC of 5.59 µM·h. Molecule `O=C(Nc1ccc(C(F)(F)F)cc1)NC1CCN(C(=O)C2CCOC2)CC1` (centres unmarked) has an AUC of 4.73 µM·h. `O=C(Nc1ccc(C(F)(F)F)cc1)NC1CCN(C(=O)C2=COCC2)CC1` gave an AUC of 0.875 µM·h.

Same assay, conditions: mouse, in vivo, po, 0.3 mg/kg, Mouse Cmax, oral gavage, single dose 0.3 mg/kg
For `O=C(O)CC1(CC(=O)N2CCC(NC(=O)Nc3ccc(C(F)(F)F)cc3)CC2)CCCCC1`, the Cmax was 590 nM. Molecule `O=C(Nc1ccc(C(F)(F)F)cc1)NC1CCN(C(=O)c2cc[nH]c2)CC1` has a Cmax of 11 nM. In the case of `Cc1ccoc1C(=O)N1CCC(NC(=O)Nc2ccc(OC(F)(F)F)cc2)CC1`, the Cmax is reported as 294 nM. `CCC(=O)N1CCC(NC(=O)Nc2ccc(OC(F)(F)F)c(F)c2)CC1` showed a Cmax of 978 nM. Work on `O=C(Nc1ccc(OC(F)(F)F)cc1)NC1CCN(C(=O)C2CCOC2)CC1` (centres unmarked) yielded a Cmax of 703 nM. Work on `O=C(Nc1ccc(OC(F)(F)F)cc1)NC1CCN(C(=O)[C@@H]2CCOC2)CC1` yielded a Cmax of 50 nM. For `O=C(Nc1ccc(C(F)(F)F)cc1)NC1CCN(C(=O)[C@@H]2CCOC2)CC1`, the Cmax was 154 nM. Molecule `O=C(Nc1ccc(OC(F)(F)F)cc1)NC1CCN(C(=O)C2CCCOC2)CC1` (centres unmarked) has a Cmax of 31 nM. With `CC(C)C(=O)N1CCC(NC(=O)Nc2ccc(C(F)(F)F)c(F)c2)CC1` the Cmax was 518 nM. For `O=C(Nc1ccc(OC(F)(F)F)c(F)c1)NC1CCN(C(=O)[C@@H]2CCOC2)CC1`, the Cmax was 2550 nM. In the case of `O=C(Nc1ccc(C(F)(F)F)cc1)NC1CCN(C(=O)C2CCCOC2)CC1` (centres unmarked), the Cmax is reported as 199 nM. `O=C(Nc1ccc(OC(F)(F)F)cc1)NC1CCN(C(=O)c2ccoc2)CC1` showed a Cmax of 146 nM. `O=C(Nc1ccc(C(F)(F)F)cc1)NC1CCN(C(=O)C2(C(F)(F)F)CC2)CC1` showed a Cmax of 6490 nM. For `O=C(Nc1ccc(OC(F)(F)F)cc1)NC1CCN(C(=O)C2=COCC2)CC1`, the Cmax was 58 nM. In the case of `O=C(Nc1ccc(OC(F)(F)F)c(F)c1)NC1CCN(C(=O)C2CC2)CC1`, the Cmax is reported as 282 nM. Work on `O=C(Nc1ccc(C(F)(F)F)cc1)NC1CCN(C(=O)C2CCOC2)CC1` (centres unmarked) yielded a Cmax of 342 nM. With `O=C(Nc1ccc(C(F)(F)F)cc1)NC1CCN(C(=O)C2=COCC2)CC1` the Cmax was 78 nM.

Same assay, conditions: mouse, in vivo, po, 0.3 mg/kg, Mouse T1/2, oral gavage, single dose 0.3 mg/kg
With `O=C(O)CC1(CC(=O)N2CCC(NC(=O)Nc3ccc(C(F)(F)F)cc3)CC2)CCCCC1` the half-life was 5 h. With `O=C(Nc1ccc(C(F)(F)F)cc1)NC1CCN(C(=O)c2cc[nH]c2)CC1` the half-life was 2 h. `Cc1ccoc1C(=O)N1CCC(NC(=O)Nc2ccc(OC(F)(F)F)cc2)CC1` showed a half-life of 3.9 h. `CCC(=O)N1CCC(NC(=O)Nc2ccc(OC(F)(F)F)c(F)c2)CC1` gave a half-life of 5.4 h. In the case of `O=C(Nc1ccc(OC(F)(F)F)cc1)NC1CCN(C(=O)C2CCOC2)CC1` (centres unmarked), the half-life is reported as 4.6 h. `O=C(Nc1ccc(OC(F)(F)F)cc1)NC1CCN(C(=O)[C@@H]2CCOC2)CC1` gave a half-life of 3.4 h. `O=C(Nc1ccc(C(F)(F)F)cc1)NC1CCN(C(=O)[C@@H]2CCOC2)CC1` showed a half-life of 1.2 h. `O=C(Nc1ccc(OC(F)(F)F)cc1)NC1CCN(C(=O)C2CCCOC2)CC1` (centres unmarked) gave a half-life of 5.3 h. For `CC(C)C(=O)N1CCC(NC(=O)Nc2ccc(C(F)(F)F)c(F)c2)CC1`, the half-life was 6.2 h. Molecule `O=C(Nc1ccc(OC(F)(F)F)c(F)c1)NC1CCN(C(=O)[C@@H]2CCOC2)CC1` has a half-life of 174 h. `O=C(Nc1ccc(C(F)(F)F)cc1)NC1CCN(C(=O)C2CCCOC2)CC1` (centres unmarked) showed a half-life of 4.1 h. For `O=C(Nc1ccc(OC(F)(F)F)cc1)NC1CCN(C(=O)c2ccoc2)CC1`, the half-life was 5.1 h. `O=C(Nc1ccc(C(F)(F)F)cc1)NC1CCN(C(=O)C2(C(F)(F)F)CC2)CC1` gave a half-life of 356 h. In the case of `O=C(Nc1ccc(OC(F)(F)F)cc1)NC1CCN(C(=O)C2=COCC2)CC1`, the half-life is reported as 2.9 h. `O=C(Nc1ccc(OC(F)(F)F)c(F)c1)NC1CCN(C(=O)C2CC2)CC1` gave a half-life of 5.1 h. Work on `O=C(Nc1ccc(C(F)(F)F)cc1)NC1CCN(C(=O)C2CCOC2)CC1` (centres unmarked) yielded a half-life of 6.9 h. Molecule `O=C(Nc1ccc(C(F)(F)F)cc1)NC1CCN(C(=O)C2=COCC2)CC1` has a half-life of 2.8 h.

Same assay, conditions: mouse, in vivo, po, 0.3 mg/kg, Mouse Tmax, oral gavage, single dose 0.3 mg/kg
In the case of `O=C(O)CC1(CC(=O)N2CCC(NC(=O)Nc3ccc(C(F)(F)F)cc3)CC2)CCCCC1`, the Tmax is reported as 7.4 h. With `O=C(Nc1ccc(C(F)(F)F)cc1)NC1CCN(C(=O)c2cc[nH]c2)CC1` the Tmax was 2.8 h. In the case of `Cc1ccoc1C(=O)N1CCC(NC(=O)Nc2ccc(OC(F)(F)F)cc2)CC1`, the Tmax is reported as 5.7 h. `CCC(=O)N1CCC(NC(=O)Nc2ccc(OC(F)(F)F)c(F)c2)CC1` showed a Tmax of 8 h. Work on `O=C(Nc1ccc(OC(F)(F)F)cc1)NC1CCN(C(=O)C2CCOC2)CC1` (centres unmarked) yielded a Tmax of 6.6 h. For `O=C(Nc1ccc(OC(F)(F)F)cc1)NC1CCN(C(=O)[C@@H]2CCOC2)CC1`, the Tmax was 6.2 h. `O=C(Nc1ccc(C(F)(F)F)cc1)NC1CCN(C(=O)[C@@H]2CCOC2)CC1` gave a Tmax of 1.7 h. For `O=C(Nc1ccc(OC(F)(F)F)cc1)NC1CCN(C(=O)C2CCCOC2)CC1` (centres unmarked), the Tmax was 7.6 h. In the case of `CC(C)C(=O)N1CCC(NC(=O)Nc2ccc(C(F)(F)F)c(F)c2)CC1`, the Tmax is reported as 7.9 h. `O=C(Nc1ccc(OC(F)(F)F)c(F)c1)NC1CCN(C(=O)[C@@H]2CCOC2)CC1` showed a Tmax of 3.7 h. With `O=C(Nc1ccc(C(F)(F)F)cc1)NC1CCN(C(=O)C2CCCOC2)CC1` (centres unmarked) the Tmax was 5.9 h. With `O=C(Nc1ccc(OC(F)(F)F)cc1)NC1CCN(C(=O)c2ccoc2)CC1` the Tmax was 7.3 h. For `O=C(Nc1ccc(C(F)(F)F)cc1)NC1CCN(C(=O)C2(C(F)(F)F)CC2)CC1`, the Tmax was 4.7 h. In the case of `O=C(Nc1ccc(OC(F)(F)F)cc1)NC1CCN(C(=O)C2=COCC2)CC1`, the Tmax is reported as 4.2 h. Molecule `O=C(Nc1ccc(OC(F)(F)F)c(F)c1)NC1CCN(C(=O)C2CC2)CC1` has a Tmax of 7.6 h. With `O=C(Nc1ccc(C(F)(F)F)cc1)NC1CCN(C(=O)C2CCOC2)CC1` (centres unmarked) the Tmax was 6.8 h. For `O=C(Nc1ccc(C(F)(F)F)cc1)NC1CCN(C(=O)C2=COCC2)CC1`, the Tmax was 4.1 h.
